Measured values as given in paper PMC9014415, “Repositioning of a Diaminothiazole Series Confirmed to Target the Cyclin-Dependent Kinase CRK12 for Use in the Treatment of African Animal Trypanosomiasis” (Journal of Medicinal Chemistry, 2022).
pEC50: −log10 of the molar value. In brackets after ≈: the same amount, converted by molar mass. Entries after “also recorded” stand apart in the source; their conditions may differ.

Key:
T. vivax [1] = assay: Ex vivo drug sensitivity assay, T. vivax (STIB 719/ILRAD 560); assay type: cell-based; settings: Trypanosoma vivax
Experimental: Test compounds were resuspended to a final concentration of 10 mg/mL in DMSO. […]
1.3 Ex vivo drug sensitivity assays - Trypanosoma vivax
Since T. vivax cannot be cultured axenically, BSF trypanosomes were harvested from an infected mouse with high parasitemia via cardiac puncture and used directly in ex vivo assays. EC50 values were determined against T, vivax (STIB 719/ ILRAD 560) as previously described3, with minor modifications. Briefly, cell densities were determined using a Neubauer chamber and then diluted to a seeding density of 4 x 105 trypanosomes / mL. BSF trypanosomes were cultured in HMI-9 (IMDM) media containing 20% (v/v) bovine serum. Assay plates were incubated at 37 °C with 5 % CO2, for a total of 45 h prior to addition 10 µL of Resazurin (12.5 mg in 100 mL phosphate buffered saline, Aldrich) into each well, followed by a further 3 h incubation. Absorbance was read using a SpectraMax (Gemini XS) fluorescence reader at an excitation wavelength of 536 nm and an emission wavelength of 588 nm. EC50 values were determined using SOFTmax Pro 5.2 analysis […]
software. […]

T. vivax [2] = assay: NMRI mouse efficacy model, T. vivax; assay type: in vivo, Trypanosoma vivax; settings: for Efficacy at 10 mg/kg SC for 4 days, T. vivax / Efficacy, T. vivax: mice; for Efficacy at 10 mg/kg SC for 4 days, T. vivax: 10 mg/kg SC once daily for 4 days
Experimental: 3. In vivo efficacy studies
The T. congolense (IL3000) and T. vivax (ILRAD V34) cell lines7, 8, both originating from Kenya, were used in the following in vivo mouse studies. For studies in cattle, either Trypanosoma congolense (savannah) KONT 2/133, 224) or T. vivax STIB 719 was used.
3.1 Mouse efficacy studies for T. brucei brucei.
Mouse efficacy studies for T. brucei brucei were carried out as previously detailed.9 3.2 NMRI mouse efficacy studies for T. congolense and T. vivax.
Mouse models of infections were carried out using standardized protocols. Briefly, 1 mL samples of cryopreserved T. congolense, or T. vivax-infected blood harvested directly from an infected mouse, were diluted with Hanks Balanced Salt Solution plus 20 mM glucose (HBSS+G) to 5 x 10^4 trypomastigotes/mL (5 x 105 for T. vivax). Female mice (NMRI) were inoculated IP on day 0 with 0.2 mL/animal (equivalent to ~ 1 x 104 T. congolense or ~ 1 x 105 T. vivax per animal). The level of parasitaemia was inspected microscopically on day 3 using tail blood smears, counting 20 high powered fields (× 400 magnification). For untreated or treated animals whose tail smears exceeded 50 parasites/field, precise parasite levels were established using a Neubauer haemocytometer; mice with a parasite burden over 1 x 108 were promptly and humanely terminated (T. congolense only, from our experience the mice will not survive for a further 24 h). Alternatively, in the case of T. vivax-infected mice the immune system will bring the infection to a sub-lethal level (below limit of detection) […]
followed by cycles of high and low parasitaemia. Eventually mice infected with T. vivax succumb to the infection between 30 – 60 days post-infection.
Suppression of parasitaemia - mouse
On day 3 post-infection, animals were randomly allocated to groups, with 3 mice/group. Infected animals were dosed with one of the following: diaminazene diaceturate IP. – 40 mg/kg once only as a control (early-stage trypanocide used to clear the parasites in the systemic circulation and in tissues other than CNS), compound 1 (SC) at 3, 10, 30 and 50 mg free base/kg twice and once daily for 4 d or a single dose, or compound 2 (SC) at 3 and 10 mg free base /kg once daily for 4 d, once daily for 2 d or a single dose, one group of 3 mice acted as an untreated control group. The dose solutions were prepared daily, using 5% DMSO: 40% PEG400: 55% MilliQ H2O for test compounds and 10% DMSO: 90% peanut oil for standard drugs. Alternatively, compound 2 was delivered for 48 h via SC implanted ALZET osmotic pumps (6, 12, 25 and 50 mg free base/mL, vehicle: 50% DMSO […]
and 50% deionized water).
Response to treatment was determined by monitoring parasitaemia twice a week until day 21.
After day 21, the mice were checked once a week until 63 d post-treatment. Mice surviving to the end of the experiment, and with blood smears clear of parasites, were considered cured. […]
The parasites were obtained from a donor calf. This isolate is resistant to diminazene (20 mg/kg) and isometamidium (1 mg/kg) in cattle, and diminazene (7 mg/kg) and isometamidium (>1 mg/kg) in mice. Calves were parasitaemic by study day 6. Calves (n = 5) were treated with compound 1 (5 mg/kg, SC, twice 12 h apart) on study

[3] = Aqueous kinetic solubility by laser nephelometry; assay type: physicochemical; settings: MilliQ water with 2.5% DMSO, read-out: Sol (kinetic solubility); for solubility kinetic at 24 h: pH 7.4, range 250-12 µM
Experimental: 2. Drug metabolism and pharmacokinetics
The aqueous solubility of test compounds was measured using laser nephelometry. Compounds were subject to serial dilution from 10 mM to 0.5 mM in DMSO. Aliquot were then mixed with MilliQ water to obtain an aqueous dilution plate with a final concentration range of 250 – 12 µM. The final DMSO concentration in these plates was 2.5%. Triplicate aliquots were transferred to a flat-bottomed polystyrene plate which was immediately read on a NEPHELOstar nephelometer (BMG Lab Technologies). The laser scatter caused by insoluble particulates (relative nephelometry units, RNU) was plotted against compound concentration using a segmental regression fit, with the point of inflection being quoted as the compound’s aqueous solubility (µM).
Solubility of compound 1 was measured by a different method. Here, compound 1 was dissolved in DMSO to give a 10 mM solution and solubility test samples prepared by adding a volume (5 µL) of this stock solution to phosphate buffered saline, pH 7.4 (195 µL, Sigma-Aldrich). This

L6 cells = assay: Cytotoxicity assay, rat skeletal myoblasts (L6); assay type: cell-based
Experimental: 1.4 Cytotoxicity assays – Rat skeletal myoblasts (L6)
The cytotoxicity of test compounds was evaluated using a rat skeletal myoblast (L6) cell line, as previously described3, but with minor modifications. Cells were grown in RPMI media supplemented with 10% (v/v) fetal calf serum. L6 cells at a seeding density of 2 x 10^4 cells/mL were incubated in microtiter plates overnight at 37 °C and 5 % CO2 until adherent. The following day, test compounds were added to the plates (3-fold serial dilutions), prior to incubation for 69 h. Following incubation, 10 µL of Resazurin (12.5 mg in 100 mL phosphate buffered saline, Aldrich) was added to each well and the plates were incubated for a further 3 h. The plates were read using a SpectraMax (Gemini XS) fluorescence reader at an excitation wavelength of 536 nm and an emission wavelength of 588 nm. EC50 values were determined using SOFTmax Pro 5.2 analysis software. All experiments were conducted as technical replicates, with at least three biological replicates. […]

Row | solubility kinetic ([3]; range 250-12 µM) | SMILES | pEC50 (T. vivax [1]) | Acute T. vivax efficacy in mice (T. vivax [2]; 3 mg/kg bid SC for 4 days) | T. vivax efficacy in mice (T. vivax [2]; 3 mg/kg once daily for 4 days, SC) | Acute T. vivax efficacy in mice (T. vivax [2]; 10 mg/kg bid SC for 4 days) | Acute T. vivax efficacy in mice (T. vivax [2]; 10 mg/kg, single dose, SC) | Acute T. vivax efficacy in mice (T. vivax [2]; 30 mg/kg, single dose, SC) | pEC50 (L6 cells) | Efficacy at 10 mg/kg SC for 4 days, T. vivax (T. vivax [2]) | solubility kinetic at 24 h [3] | Efficacy, T. vivax (T. vivax [2]; 3 mg/kg for 4 days) | Efficacy, T. vivax (T. vivax [2]; 3 mg/kg for 4 days, 3 mg/kg) | Efficacy at 10 mg/kg SC for 4 days, T. vivax (T. vivax [2]; 10 mg/kg) | Efficacy, T. vivax (T. vivax [2]; 10 mg/kg for 2 days, 10 mg/kg)
1 | – | CC(C)CS(=O)(=O)N[C@H]1CC[C@H](Nc2nc(N)c(C(=O)c3c(F)cccc3F)s2)CC1 [Compound 1, N-((trans)-4-((4-Amino-5-(2,6-difluorobenzoyl)thiazol-2-yl)amino)cyclohexyl)-2-methylpropane-1-sulfonamide] | 7.02 | Full cure | sterile cure | Full cure | Partial cure (1/3) | sterile cure; also recorded: Full cure | – | – | – | – | – | – | –
2 | > 250 µM | CNCc1cc(F)c(C(=O)c2sc(N[C@H]3CC[C@H](NS(=O)(=O)CC(C)C)CC3)nc2N)c(F)c1.Cl [Compound 8, N-((trans)-4-((4-Amino-5-(2,6-difluoro-4-((methylamino)methyl)benzoylthiazol-2-yl)amino)cyclohexyl))-2-methylpropane-1-sulfonamide Hydrochloride] | 9.17 | – | – | – | – | – | 4.82 | Full cure (3/3) | – | – | – | – | –
3 | – | CC(C)CS(=O)(=O)N[C@H]1CC[C@H](Nc2nc(N)c(C(=O)c3c(Cl)cccc3Cl)s2)CC1 [Compound 10, N-((trans)-4-((4-Amino-5-(2,6-dichlorobenzoyl)thiazol-2-yl)amino)cyclohexyl)-2-methylpropane-1-sulfonamide] | 9.33 | – | – | – | – | – | 5.47 | – | 53 µM (≈ 26.8 µg/mL) | Full cure (3/3) 3 mg/kg | – | – | –
4 | – | CC(C)CS(=O)(=O)N[C@H]1CC[C@H](Nc2nc(N)c(C(=O)c3c(F)cc(CN(C)C)cc3F)s2)CC1 [Compound 2, N-(trans)-[4-[[4-Amino-5-[4-(dimethylaminomethyl)-2,6-difluoro-benzoyl]thiazol-2-yl]amino]cyclohexyl]-2-methyl-propane-1-sulfonamide] | 10.10 | – | – | – | – | – | 5.44 | – | 250 µM (≈ 132 µg/mL) | – | Full cure (3/3) 3 and 10 mg/kg for 4 days 10 mg/kg for 2 days; also recorded: Full cure (3/3); 3 and 10 mg/kg for 4 days, 10 mg/kg for 2 days | fully curative; also recorded: Full cure (3/3) 3 and 10 mg/kg for 4 days 10 mg/kg for 2 days; also recorded: Full cure (3/3); 3 and 10 mg/kg for 4 days, 10 mg/kg for 2 days | Full cure (3/3) 3 and 10 mg/kg for 4 days 10 mg/kg for 2 days; also recorded: Full cure (3/3); 3 and 10 mg/kg for 4 days, 10 mg/kg for 2 days
